Among the data in patent publication US9382254B2, “Compounds and pharmaceutical compositions thereof for the treatment of cystic fibrosis” (Galapagos NV, priority 2013, dated 2016) are EC50 values, retold here.

Common to all, as to assay type: cell-based
The target in one experiment is T1, CFTR-R117H (Homo sapiens, UniProt P13569, R117H).
T1 construct: expressed in transfected cells
The experiment can be described thus: YFP-halide influx assay for the CFTR-R117H. The text has this: (§1) The YFP halide influx assay measures the functionality of the cystic fibrosis Transmembrane Conductance regulator (CFTR) channels. The assay is used to evaluate the capacity of compounds to increase the channel opening of existing mutant CFTR channels in the membrane. It makes use of the observation that the yellow fluorescent protein (YFP) variant YFP H148Q, I152L, […] has its fluorescence substantially quenched by halide ions like Cl^− and I^−. (Galietta, Haggie, & Verkman, 2001)
(§2) For this purpose, HEK293-cells are seeded in 96 well plates. During seeding, the cells are reverse-transfected with plasmid vectors that direct the expression of the CFTR G551D mutant and of the YFP reporter. Cells are incubated at 37° C., 5% CO2 for 24 hours so as to allow for sufficient expression of the CFTR protein.
(§3) The I^−-induced quenching of fluorescence is recorded immediately after injection of I^− for 7 seconds. The capacity of a compound to increase the channel opening is directly correlated with the decrease in fluorescence, and is expressed as (1-(fluorescence after 7 seconds (F)/fluorescence before injection (F0))) and an EC50 can be derived from a (1-F/F0) vs compound concentration plot.
(§4) Similar YHA assays were developed for other channel gating defective or channel conductance defective CFTR mutants to determine effect of compound on channel activity. Examples of mutants are G178R, G1349D, S549N, R117H, R334W. This assay is also used for additional class I CFTR mutants, including G542X, W1282X; class II mutants including N1303K, and for class III mutants including S1251N.

For the next experiment, the target named is T2, CFTR G551D mutant (Homo sapiens, UniProt P13569, G551D).
T2 construct: expressed in transfected cells; host or cells: HEK293 (reverse transfection with plasmid)
T2 sequence (P13569 whole entry G551D): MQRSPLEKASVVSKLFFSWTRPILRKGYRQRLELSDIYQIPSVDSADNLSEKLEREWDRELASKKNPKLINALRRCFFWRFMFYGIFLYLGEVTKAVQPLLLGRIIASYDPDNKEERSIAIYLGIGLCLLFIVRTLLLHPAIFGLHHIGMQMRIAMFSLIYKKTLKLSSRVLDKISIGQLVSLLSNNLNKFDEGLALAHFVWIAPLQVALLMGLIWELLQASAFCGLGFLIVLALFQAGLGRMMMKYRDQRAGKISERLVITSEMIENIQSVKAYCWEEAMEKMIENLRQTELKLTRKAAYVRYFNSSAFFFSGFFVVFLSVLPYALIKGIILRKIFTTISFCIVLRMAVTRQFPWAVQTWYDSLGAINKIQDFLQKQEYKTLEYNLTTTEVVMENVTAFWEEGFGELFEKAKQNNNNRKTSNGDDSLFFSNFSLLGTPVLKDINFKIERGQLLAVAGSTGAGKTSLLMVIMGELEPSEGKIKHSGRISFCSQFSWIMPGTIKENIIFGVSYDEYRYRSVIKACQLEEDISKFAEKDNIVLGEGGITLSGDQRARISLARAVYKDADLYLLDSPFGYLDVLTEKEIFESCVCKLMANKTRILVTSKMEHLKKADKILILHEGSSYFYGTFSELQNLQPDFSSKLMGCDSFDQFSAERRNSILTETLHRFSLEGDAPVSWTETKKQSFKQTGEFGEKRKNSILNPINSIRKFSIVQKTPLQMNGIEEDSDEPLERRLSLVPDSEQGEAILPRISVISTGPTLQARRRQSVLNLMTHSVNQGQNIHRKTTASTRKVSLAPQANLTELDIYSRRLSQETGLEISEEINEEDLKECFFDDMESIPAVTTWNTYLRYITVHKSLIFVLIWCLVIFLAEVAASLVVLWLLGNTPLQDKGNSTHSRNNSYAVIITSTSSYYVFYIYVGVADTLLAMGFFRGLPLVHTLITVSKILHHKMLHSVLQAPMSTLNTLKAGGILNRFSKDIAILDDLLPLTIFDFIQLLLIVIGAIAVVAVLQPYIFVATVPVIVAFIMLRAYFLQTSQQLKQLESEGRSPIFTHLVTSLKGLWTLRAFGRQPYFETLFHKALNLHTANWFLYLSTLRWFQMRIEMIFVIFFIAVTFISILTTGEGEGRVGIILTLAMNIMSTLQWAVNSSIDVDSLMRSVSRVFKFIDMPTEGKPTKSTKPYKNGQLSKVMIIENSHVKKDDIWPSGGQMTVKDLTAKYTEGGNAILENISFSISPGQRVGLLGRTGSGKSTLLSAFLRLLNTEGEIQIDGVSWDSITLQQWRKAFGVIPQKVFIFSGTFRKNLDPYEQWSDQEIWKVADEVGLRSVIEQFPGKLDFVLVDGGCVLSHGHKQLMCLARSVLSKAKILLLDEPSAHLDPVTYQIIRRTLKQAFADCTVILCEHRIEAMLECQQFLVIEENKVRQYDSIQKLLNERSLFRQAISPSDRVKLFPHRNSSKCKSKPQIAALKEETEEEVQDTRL
Nature of the experiment: YFP-halide influx assay for the CFTR-G551D mutation. The following applies: HEK293 cells, forskolin 10.67 μM. The method in brief: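 HEK293 cells reverse-transfected with CFTR G551D and YFP H148Q/I152L/F47L halide sensor, expressed 24 h at 37 °C. Iodide-induced fluorescence quench recorded 7 s after I− injection; response = 1−F/F0, with EC50 from plot against compound concentration.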

The next experiment concerns the target T3, CFTR ΔF508 mutant (Homo sapiens, UniProt P13569, DEL508-508).
T3 construct: expressed in transfected cells; host or cells: CFBE41o- (adenoviral transduction)
Nature of the experiment: YFP-halide influx assay for the CFTR-ΔF508 mutation (384 well, FDSS/μCell). The following applies: CFBE41o- cells, CFTR-ΔF508, 1×D-PBS, fluorescence after 36 seconds. The method in brief:
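Potentiator read-out as 1−F/F0, F taken 36 s after iodide addition, EC50 fitted against compound concentration. Cells: CFBE41o- expressing ΔF508 CFTR plus halide-sensitive YFP via adenovirus, rescued by 27 °C for 24 h or 24 h modulator at 37 °C.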

For a further experiment, the target named is T4, CFTR-G1349D (Homo sapiens, UniProt P13569, G1349D).
T4 construct: expressed in transfected cells
T4 sequence (P13569 whole entry G1349D): as the sequence (P13569 whole entry G551D) above, with D551G, G1349D counted along it
The experiment can be described thus: YFP-halide influx assay for the CFTR-G1349D.
From the text: as §1, §2, §3, §4

The target of another experiment is T5, CFTR-S549N (Homo sapiens, UniProt P13569, S549N).
T5 construct: expressed in transfected cells
T5 sequence (P13569 whole entry S549N): as the sequence (P13569 whole entry G551D) above, with S549N, D551G counted along it
Nature of the experiment: YFP-halide influx assay for the CFTR-S549N.
From the text: as §1, §2, §3, §4

For a further experiment, the target named is T6, CFTR-G178R (Homo sapiens, UniProt P13569, G178R).
T6 construct: expressed in transfected cells
T6 sequence (P13569 whole entry G178R): as the sequence (P13569 whole entry G551D) above, with G178R, D551G counted along it
Nature of the experiment: YFP-halide influx assay for the CFTR-G178R.
From the text: as §1, §2, §3, §4

T1 sequence (P13569 whole entry R117H): as the sequence (P13569 whole entry G551D) above, with R117H, D551G counted along it
T3 sequence (P13569 with tags, fused parts or gaps DEL508-508): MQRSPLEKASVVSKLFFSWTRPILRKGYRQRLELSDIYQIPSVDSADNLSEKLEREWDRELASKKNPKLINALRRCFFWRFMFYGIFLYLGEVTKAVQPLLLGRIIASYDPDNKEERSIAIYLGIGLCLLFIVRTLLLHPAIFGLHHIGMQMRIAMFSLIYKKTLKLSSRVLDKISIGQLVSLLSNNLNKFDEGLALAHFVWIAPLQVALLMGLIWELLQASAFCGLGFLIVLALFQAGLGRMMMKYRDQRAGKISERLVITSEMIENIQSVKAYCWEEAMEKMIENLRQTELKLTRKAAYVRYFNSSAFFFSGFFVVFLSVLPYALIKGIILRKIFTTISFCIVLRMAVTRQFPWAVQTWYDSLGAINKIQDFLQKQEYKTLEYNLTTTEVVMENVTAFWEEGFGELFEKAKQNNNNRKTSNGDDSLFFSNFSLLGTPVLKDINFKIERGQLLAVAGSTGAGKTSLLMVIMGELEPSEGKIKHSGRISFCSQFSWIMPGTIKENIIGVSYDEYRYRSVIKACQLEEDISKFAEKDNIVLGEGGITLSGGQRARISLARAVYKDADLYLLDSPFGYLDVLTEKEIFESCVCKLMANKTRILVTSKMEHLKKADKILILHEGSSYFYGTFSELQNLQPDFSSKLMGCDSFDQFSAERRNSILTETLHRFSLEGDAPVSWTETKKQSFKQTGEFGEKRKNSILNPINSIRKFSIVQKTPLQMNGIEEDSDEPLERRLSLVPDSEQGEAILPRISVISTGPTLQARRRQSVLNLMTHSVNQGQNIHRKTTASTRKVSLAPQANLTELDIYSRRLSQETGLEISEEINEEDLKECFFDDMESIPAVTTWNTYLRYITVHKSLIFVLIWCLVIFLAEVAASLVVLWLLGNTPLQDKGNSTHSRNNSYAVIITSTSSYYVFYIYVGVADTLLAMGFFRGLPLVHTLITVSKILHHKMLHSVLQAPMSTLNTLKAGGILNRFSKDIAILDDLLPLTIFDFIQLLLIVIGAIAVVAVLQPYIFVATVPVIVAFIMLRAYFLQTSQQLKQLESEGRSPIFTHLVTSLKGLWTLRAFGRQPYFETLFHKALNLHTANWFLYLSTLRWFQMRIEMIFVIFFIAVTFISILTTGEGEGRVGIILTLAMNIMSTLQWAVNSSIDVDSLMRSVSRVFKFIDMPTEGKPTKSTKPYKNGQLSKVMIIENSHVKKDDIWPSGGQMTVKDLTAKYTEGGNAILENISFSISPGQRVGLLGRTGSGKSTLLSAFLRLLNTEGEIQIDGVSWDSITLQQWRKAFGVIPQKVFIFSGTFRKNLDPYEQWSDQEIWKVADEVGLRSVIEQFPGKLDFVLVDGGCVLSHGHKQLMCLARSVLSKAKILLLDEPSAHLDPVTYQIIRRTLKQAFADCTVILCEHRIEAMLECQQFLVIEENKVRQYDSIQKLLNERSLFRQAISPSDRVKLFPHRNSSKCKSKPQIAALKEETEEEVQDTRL

In the case of `CC(C)(O)C(=O)Nc1sc(S(=O)(=O)c2ccc(C#N)cc2C(F)(F)F)cc1C(N)=O` [Compound 407, 5-[4-cyano-2-(trifluoromethyl)phenyl] sulfonyl-2-[(2-hydroxy-2-methyl-propanoyl)amino] thiophene-3-carboxamide], the EC50 was 262 nM at CFTR-R117H; 3330 nM at CFTR G551D mutant; 50.6 nM on CFTR ΔF508 mutant; 3330 nM on CFTR-G1349D; 2860 nM on CFTR-S549N; 1530 nM on CFTR-G178R.

Take `CC(C)(O)C(=O)Nc1sc(S(=O)(=O)c2cccc(C(F)(F)F)c2)cc1C(N)=O` [Compound 408, 2-[(2-hydroxy-2-methyl-propanoyl)amino]-5-[3-(trifluoromethyl)phenyl]sulfonyl-thiophene-3-carboxamide]: the EC50 on CFTR-R117H came to 535 nM; on CFTR G551D mutant, 1770 nM; at CFTR ΔF508 mutant, 11 nM; on CFTR-G1349D, 149 nM; on CFTR-S549N, 525 nM; on CFTR-G178R, 42.7 nM.

On to `CC(C)(O)C(=O)Nc1sc(S(=O)(=O)c2ncc(C(F)(F)F)cc2F)cc1C(N)=O` [Compound 410, 5-[[3-fluoro-5-(trifluoromethyl)-2-pyridyl]sulfonyl]-2-[(2-hydroxy-2-methyl-propanoyl)amino] thiophene-3-carboxamide], for which the EC50 on CFTR-R117H amounted to 138 nM; on CFTR G551D mutant, 708 nM; at CFTR ΔF508 mutant it was 14.1 nM; on CFTR-G1349D it was 120 nM; at CFTR-S549N, 104 nM; on CFTR-G178R, 80.1 nM.

In the case of `CC(C)(O)C(=O)Nc1sc(S(=O)(=O)c2ncccc2C(F)(F)F)cc1C(N)=O` [Compound 411, 2-[(2-hydroxy-2-methyl-propanoyl)amino]-5-[[3-(trifluoromethyl)-2-pyridyl]sulfonyl] thiophene-3-carboxamide], the EC50 on CFTR-R117H is 488 nM; on CFTR G551D mutant, 4920 nM; on CFTR ΔF508 mutant, 61 nM; on CFTR-G1349D it was 1040 nM; at CFTR-S549N, 861 nM; at CFTR-G178R, 136 nM.

As for `CC(C)(O)C(=O)Nc1sc(S(=O)(=O)c2nc(C(F)(F)F)ccc2C(F)(F)F)cc1C(N)=O` [Compound 412, 5-[[3,6-bis(trifluoromethyl)-2-pyridyl]sulfonyl]-2-[(2-hydroxy-2-methyl-propanoyl)amino] thiophene-3-carboxamide], the EC50 on CFTR-R117H was determined as 35.4 nM; on CFTR G551D mutant, 96.4 nM; at CFTR ΔF508 mutant, 3.57 nM; at CFTR-G1349D it was 7.47 nM; on CFTR-S549N, 11.3 nM; at CFTR-G178R it was 11.1 nM.

Take `Cc1ccc(C(F)(F)F)c(S(=O)(=O)c2cc(C(N)=O)c(NC(=O)C(C)(C)O)s2)n1` [Compound 413, 2-[(2-hydroxy-2-methyl-propanoyl)amino]-5-[[6-methyl-3-(trifluoromethyl)-2-pyridyl]sulfonyl] thiophene-3-carboxamide]: the EC50 on CFTR-R117H is 71.1 nM; on CFTR G551D mutant, 1480 nM; on CFTR ΔF508 mutant it was 12.8 nM; at CFTR-G1349D, 134 nM; at CFTR-S549N, 64.7 nM; on CFTR-G178R it was 44.7 nM.

Regarding `COc1cc(C)cc(S(=O)(=O)c2cc(C(N)=O)c(NC(=O)C(C)(C)O)s2)c1` [Compound 416, 2-[(2-hydroxy-2-methyl-propanoyl)amino]-5-(3-methoxy-5-methyl-phenyl)sulfonyl-thiophene-3-carboxamide], the EC50 at CFTR-R117H worked out at 351 nM; at CFTR G551D mutant, 773 nM; at CFTR ΔF508 mutant, 17.7 nM; on CFTR-G1349D, 353 nM; at CFTR-S549N, 1780 nM; on CFTR-G178R, 268 nM.

As to `COc1cc(S(=O)(=O)c2cc(C(N)=O)c(NC(=O)C(C)(C)O)s2)c(OC(F)F)cn1` [Compound 418, 5-[[5-(difluoromethoxy)-2-methoxy-4-pyridyl]sulfonyl]-2-[(2-hydroxy-2-methyl-propanoyl)amino] thiophene-3-carboxamide], the EC50 on CFTR-R117H was determined as 192 nM; on CFTR G551D mutant it was 390 nM; at CFTR ΔF508 mutant, 8.18 nM; at CFTR-G1349D, 18.4 nM; at CFTR-S549N, 184 nM; on CFTR-G178R, 14.4 nM.

As to `COc1cc(C#N)cc(S(=O)(=O)c2cc(C(N)=O)c(NC(=O)C(C)(C)O)s2)c1OC(F)F` [Compound 419, 5-[5-cyano-2-(difluoromethoxy)-3-methoxy-phenyl]sulfonyl-2-[(2-hydroxy-2-methyl-propanoyl)amino] thiophene-3-carboxamide], the EC50 at CFTR-R117H stood at 465 nM; on CFTR G551D mutant, 678 nM; on CFTR ΔF508 mutant it was 26.6 nM; at CFTR-G1349D it was 617 nM; at CFTR-S549N it was 621 nM; at CFTR-G178R, 250 nM.

For the compound `COc1ccc(C(F)(F)F)c(S(=O)(=O)c2cc(C(N)=O)c(NC(=O)C(C)(C)O)s2)n1` [Compound 420, 2-[(2-hydroxy-2-methyl-propanoyl)amino]-5-[[6-methoxy-3-(trifluoromethyl)-2-pyridyl]sulfonyl] thiophene-3-carboxamide], the EC50 on CFTR-R117H came out at 97.2 nM; at CFTR G551D mutant, 197 nM; on CFTR ΔF508 mutant it was 8.05 nM; at CFTR-G1349D, 95 nM; at CFTR-S549N it was 146 nM; at CFTR-G178R, 110 nM.

`CC(C)c1nn(C)cc1S(=O)(=O)c1cc(C(N)=O)c(NC(=O)C(C)(C)O)s1` [Compound 421, 2-[(2-hydroxy-2-methyl-propanoyl)amino]-5-(3-isopropyl-1-methyl-pyrazol-4-yl)sulfonyl-thiophene-3-carboxamide]: the EC50 at CFTR-R117H was 1930 nM; at CFTR G551D mutant, 5530 nM; at CFTR ΔF508 mutant, 69 nM; on CFTR-G1349D, 1540 nM; on CFTR-S549N it was 1110 nM; on CFTR-G178R, 1590 nM.

As for `CC(C)(O)C(=O)Nc1sc(S(=O)(=O)c2ccc(C(F)(F)F)c(F)c2)cc1C(N)=O` [Compound 422, 5-[3-fluoro-4-(trifluoromethyl)phenyl]sulfonyl-2-[(2-hydroxy-2-methyl-propanoyl)amino] thiophene-3-carboxamide], the EC50 amounted to 448 nM at CFTR-R117H; 872 nM at CFTR G551D mutant; 15.3 nM on CFTR ΔF508 mutant; 212 nM on CFTR-G1349D; 542 nM at CFTR-S549N; 64.4 nM at CFTR-G178R.

As for `CC(C)(O)C(=O)Nc1sc(S(=O)(=O)c2ccc(C(F)(F)F)c(Cl)n2)cc1C(N)=O` [Compound 423, 5-[[6-chloro-5-(trifluoromethyl)-2-pyridyl]sulfonyl]-2-[(2-hydroxy-2-methyl-propanoyl)amino] thiophene-3-carboxamide], the EC50 on CFTR-R117H was determined as 249 nM; on CFTR G551D mutant, 842 nM; at CFTR ΔF508 mutant it was 10.9 nM; at CFTR-G1349D, 1110 nM; on CFTR-S549N, 1910 nM; at CFTR-G178R, 162 nM.

With `CC(C)(O)C(=O)Nc1sc(S(=O)(=O)c2nc(Cl)ccc2C(F)(F)F)cc1C(N)=O` [Compound 424, 5-[[6-chloro-3-(trifluoromethyl)-2-pyridyl]sulfonyl]-2-[(2-hydroxy-2-methyl-propanoyl)amino] thiophene-3-carboxamide], the EC50 on CFTR-R117H was determined as 97.3 nM; at CFTR G551D mutant, 403 nM; on CFTR ΔF508 mutant, 3.19 nM; on CFTR-G1349D, 2430 nM; on CFTR-S549N it was 332 nM; on CFTR-G178R, 178 nM.
